Results published in patent EP0600087A1, “METHOD AND KIT OF IN VITRO IRRITATION TEST” (priority 1991, dated 1993).
Read-outs that look alike come from different tables or passages of the source.

How the values were obtained:
rabbit = experiment: Draize method, ocular irritation; format: in vivo; details: for Draize score Ocular irritation: Table 1, Conc. of test substance 0.5%; for Actual evaluation: Table 3, Draize ocular irritation score used for the regression; for Found value: Table 4, measurements according to the Draize method
From the text: The assay and evaluation as to whether or not a foreign substance gives harmful irritation to a living body which induces vital reactions, for example, inflammation, hemolysis, opacification, and swelling, are essential in the product development in the technical fields of cosmetics, medicines, and other medical materials and oleo chemicals where a particular substance is directly applied to the living body At the present time, experimental animals are mainly used for these assay and evaluation. In the tests, particularly in irritation tests, use is made of a skin irritation test (primary irritation and accumulating irritation), an ocular irritation test, a patch test, and a mucous membrane irritation test (tunica mucosa oris and urogenital mucosa membrane). For example, in the ocular irritation test, the Draize method, which uses a rabbit, is generally adopted. In this method, the ocular irritation by a test substance is assayed particularly through (1) the determination of the degree of clouding of the cornea, (2) the evaluation of the incidence of congestion or edema of the conjunctiva, and (3) the evaluation of the incidence of congestion or swelling of the iris.
The same test substance as that used above was subjected to a test according to the Draize method.

[1] = Estimate of Draize score by regression of HDR values (Example 3); details: Draize score estimated by 17.61 + 0.624 1% HDR + 0.481 0.016% HDR
From the text: The results thus obtained were subjected to regression using the following associative equation to obtain the above-described correlation coefficient. 17.61 + 0.624 1% HDR + 0.481 0.016% HDR [formula] Consequently, a very good correspondence was observed even with evaluation by a plurality of concentrations.

[2] = Estimate of Draize score by regression of RBC and HDR values (Example 4); details: estimated value based on the Draize method using the associative equation with RBC, 2% HDR, 0.25% HDR, 0.063% HDR
From the text: • Method 1: The procedure as described in Example 1 was repeated. • Method 2: The procedure as described in Example 2 was repeated.
The results obtained from the two methods were subjected to regression using the associative equation below: […]
Here, the calculated values are estimated values based on the Draize method using the above-described associative equation, and the found values are measurements according to the Draize method.

[3] = Table 1, Conc. of test substance 0.5%

## CCCCCCCCCCCCOS(=O)(=O)[O-].[Na+] [SDS, sodium dodecylsulfate]
rabbit
  Draize score Ocular irritation: 35.1
  Actual evaluation: 35.100
  Found value: 70
[1]
  Estimated value: 43.331
[2]
  Calculated value: 70.5078
[3]
  Draize score Primary ocular irritation: 6.9

## CCCCCCCCOc1ccccc1 [Octyl phenyl ether]
rabbit
  Draize score Ocular irritation: 8.7
  Actual evaluation: 3.700
  Found value: 8.7
[1]
  Estimated value: 17.610
[2]
  Calculated value: 6.9685
[3]
  Draize score Primary ocular irritation: 0.2

## CCCCCCCCCCCCCCCC[n+]1ccccc1 [Cetyl pyridinium chloride]
rabbit
  Draize score Ocular irritation: 70
  Actual evaluation: 70.000
  Found value: 35
In vivo
  Draize score Primary ocular irritation: 4.0
  Draize score Primary skin irritation: 4.0
